# Laboratory results from US20240148745A1, “COMPOUNDS FOR USE IN PROGRESSIVE MULTIPLE SCLEROSIS” (FONDAZIONE CENTRO SAN RAFFAELE, priority 2021, published 2024).
# Assays:
# rat primary OPC cultures = test: Differentiation of rat primary OPC into MBP+ OLs; format: cell-based; conditions: 96 h, 4 days of differentiation, read-out: MBP+ differentiation (MBP+/SOX10+ OLs plus compounds / plus basal medium)
# Procedure, shortened: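 Primary rat OPCs were differentiated for 4 days with compounds at […], in triplicate over 3 independent experiments. Cells were immunolabelled for CNPase, MBP and SOX10, and MBP+ oligodendrocytes were counted by imaging. Results are fold increase in MBP+/SOX10+ cells over basal medium; 9-cis-RA ([…]) was the positive control.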
# [1] = tested on: H9-derived human neural stem cells; test: Neurotoxic or regenerative effect screening (CellTiter-Glo); format: cell-based; conditions: 10 μM, three independent screenings
# Method: H9-derived human neural stem cells (H9 hNSCs, Gibco) were cultured according to the manufacturer's instructions. Briefly, H9 hNSCs were expanded and subsequently differentiated in neurobasal medium, 2% B27, 1% Glutamax, and 1% penicillin/streptomycin, supplemented with 10 ng/ml BDNF (Peprotech), and 2 ng/ml recombinant human GDNF (Peprotech). After 7 days, 500 μM of db-cAMP (N6,2′-O-dibutyryladenosine 3′,5′-cyclic monophosphate, Sigma) was added.
# The metabolic activity/viability of selected compounds (32 “Front Runners”+24 compounds from the “Short list”) was evaluated by CellTiter-Glo® Luminescent Cell Viability Assay. The primary screen of Front Runner List (32 compounds)+24 compounds from Short List) on H9-derived human neurons was performed at 10 μM concentration. The validation of hits from primary screen on H9-derived human neurons was performed at 10 μM concentration.
# 32 Front Runners were tested at 10 μM on H9-derived human neuronal cultures and viability was evaluated by CellTiter-Glo® Luminescent Cell Viability Assay.
# [2] = tested on: iPSC-derived glutamatergic neurons; test: ROS (tBuOOH)-mediated neuroprotective assay on hNeu; format: cell-based, human
# Method: Neuroprotective experiments were performed using iPSC-derived glutamatergic neurons from 3 healthy controls cultured for 30-40 DIV. Cells were pre-treated for 24 h with […] of compounds, vehicle (DMSO) or 5 nM Mito-Q (mitoquinone) served as a positive control. On the next day cells were incubated for 2 h with 100 µM of tert-butyl peroxide (tBuOOH, Sigma), then the medium was replaced and the viability readout by CCK8 viability assay kit (Dojindo) was performed on the following day. The cell viability was expressed as normalized Z score and compared to tBuOOH-treated cells with nonparametric Kruskal-Wallis test with Dunn's multiple comparisons correction.
# 32 “Front runners” and 7 compounds from short list were tested on iPSC-derived neurons from three control lines in ROS-mediated assay to evaluate a neuroprotective potential of selected compounds. Three independent experiments were performed for CTR4 and CTR8, FIG. 20 (A, C), while two independent experiments were performed for CTR7, FIG. 20 (B).
# [3] = tested on: primary murine spinal cord culture; test: Myelinating cell cultures from primary murine spinal cord; format: cell-based, mouse; conditions: 1 μM
# Method: Single cell suspensions are prepared from spinal cord of mouse embryos (E13) (adapted from Thomson, 2008) and 1.5×10^5 cells/well were plated into 96 well plates. Over time, these cultures mature and form axons, which later myelinate. Using spinal cord tissue facilitates the quantification of mature MBP+ oligodendrocytes and newly formed myelin by in-house high-content imaging system (Operetta High Content Imaging System, Perkin Elmer) with a 20× lens. From each well, 25 fields in a 5×5 matrix were scanned. Thirty-two “Front Runners” compounds were tested in replicates of five at 1 μM/DMSO, while T3, benzotropine and clemastine were used as positive controls, DMSO as negative/solvent control. Two experimental paradigms were applied: “Early treatment”: exposure to experimental agent from DIV7 to DIV14; “Late treatment”: exposure to experimental agent from DIV14-DIV21. On DIV21, cultures were fixed and stained (myelin: MBP, axons: NF200; nuclei: Hoechst). Imaging data were analysed using CellProfiler and in-house generated analysis pipeline.
# Thirty-two “Front Runners” compounds were tested in replicates of five at 1 μM/DMSO, while T3, benztropine and clemastine were used as positive controls, DMSO as negative/solvent control. Two experimental paradigms were applied: “Early treatment”: exposure to experimental agent from DIV7 to DIV14; “Late treatment”: exposure to experimental agent from DIV14-DIV21. […] In “Late treatment” paradigm in myelin area evaluation were identified Vanoxerine, Roxadustat, Tamibarotene, Drinabant, Progesterone, Saracatinib. In quantification of myelinated axons were identified Vanoxerine, Drinabant, Roxadustat.
# [4] = tested on: murine cortical neurons (14 DIV); test: NMDA-mediated neuroprotective assay (CCK8 viability); format: cell-based, mouse; conditions: 1 μM, 3 h pre-treatment, NMDA 8 μM 24 h, p<0.05
# Procedure, shortened: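 Primary murine cortical neurons pre-treated with 1 μM compound for 3 or 24 h, then exposed to 8 μM NMDA for 24 h. Viability read by CCK-8 and expressed relative to NMDA-only control; vehicle 0.02% DMSO.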
# [5] = control line CTR4, 1 μM, p<0.05
# [6] = summary for all three control lines
Compound,fold induction at 1 µM (rat primary OPC cultures),cumulative Z-scores of ATP production/viability [1],"protection from tBuOOH insult [2, 6]",myelin area ([3]; Early treatment DIV7 to DIV14),neuroprotection of viability/metabolic activity against NMDA [4],further results
O=C(c1ccc(CN2CCOCC2)cc1)N1CCN(C2CC2)CC1 [Bavisant],> 1.6,–,–,–,–,–
CC(=O)N1CCN([C@H]2CCN(C(=O)N(C)[C@H](C)c3cc(C(F)(F)F)cc(C(F)(F)F)c3)[C@@H](c3ccc(F)cc3C)C2)CC1 [Casopitant],> 1.6,potential hits,potential neuroprotective effect from tBuOOH-mediated insult,identified,–,"protection from tBuOOH insult [2, 5]: protected from tBuOOH insult; protection from tBuOOH insult ([2]; control line CTR7, p=0.07): trend to significance; quantification of myelinated axons ([3]; Early treatment DIV7 to DIV14): identified"
"CCOC(=O)[C@@H](N)CCC(=O)N[C@@H](CSCc1ccccc1)C(=O)N[C@@H](C(=O)OCC)c1ccccc1.Cl [Ezatiostat hydrochloride, Ezatiostat Hydrochloride]",–,potential hits,potential neuroprotective effect from tBuOOH-mediated insult,–,hit compounds,–
C[C@H](Nc1cc(-c2cnn(C)c2)cc(Nc2cnccn2)n1)c1ccc(F)cc1 [NS-018],–,–,potential neuroprotective effect from tBuOOH-mediated insult,identified,–,"protection from tBuOOH insult [2, 5]: protected from tBuOOH insult; protection from tBuOOH insult ([2]; control line CTR8, p<0.05): potential neuroprotective compound from tBuOOH-mediated insult; quantification of myelinated axons ([3]; Early treatment DIV7 to DIV14): identified"
NCCCC[C@H](NC(=O)[C@@H](Cc1cc(Br)c(O)c(Br)c1)NC(=O)N1CCC(N2Cc3ccccc3NC2=O)CC1)C(=O)N1CCN(c2ccncc2)CC1 [Olcegepant],> 1.6,–,potential neuroprotective effect from tBuOOH-mediated insult,–,–,–
O=C(NOC[C@H](O)CO)c1ccc(F)c(F)c1Nc1ccc(I)cc1F [PD-0325901],> 1.6,potential hits,–,–,–,–
CC(=O)[C@H]1CC[C@H]2[C@@H]3CCC4=CC(=O)CC[C@]4(C)[C@H]3CC[C@]12C [Progesterone],–,–,–,identified,hit compounds,myelin area ([3]; Late treatment DIV14-DIV21): identified
CC1(C)CCC(C)(C)c2cc(NC(=O)c3ccc(C(=O)O)cc3)ccc21 [Tamibarotene],> 1.6,–,–,identified,hit compounds,myelin area ([3]; Late treatment DIV14-DIV21): identified
